Several values for one entry are separate records, joined by “and”; a condition that tells them apart may be missing. Equal entries are not always repeated. Blank lines part the entries; values can stand above or below the molecule they belong to.
Experiments:
[1] = Single dose oral pharmacokinetics study in male Sprague Dawley rats; assay type: in vivo, Rat; details: for Plasma Concentration of Menaquinone-7, Mean (comparative table): G1: Menaquinone-7 oral; for Plasma Concentration of Menaquinone-7, Mean / Plasma Concentration of Menaquinone-7, individual animals: fasted
Description: Male Sprague Dawley rats aged 8-10 weeks and weighing around 202-223 grams are used for in vivo testing. Animals are fasted overnight with free access to water. Animals are split into 4 groups G1 to G4, each group containing 3 rats. To determine the bioavailability, the test items are separately dissolved in corn oil to obtain homogenous formulations. Animals are administered with test items by oral gavage, animals of G1 received 1088 μg, G2 received 1073 μg, G3 and G4 received 1000 μg per kg body weight dose of compound Ia.1, m=9, n=7 (G1), of compound Ia.1, m=9, n=9 (G2), menaquinone-7 (G3) and menaquinone-9 (G4) respectively. The doses of Ia.1 (n=7) (G1), of Ia.1 (n=9) were adjusted for the menaquinol content. Blood samples are collected at various time points during the next 48 hours post dose.
Blood samples were collected and transferred to tubes containing K2EDTA and immediately placed on ice for plasma preparations. Plasma was prepared by centrifugation at 3500 g for 10 min, aliquots are frozen at −80° C. until analysis. Quantification of analyte in plasma is determined by LC-MS-MS analysis. Plasma PK parameters are calculated using WinNonlin software.
Approximately 5 mg of Menaquinone-7 was weighed and transferred to a graduated tube. Then 10 mL of sunflower oil was added and vortex mixed thoroughly until the test item is completely dissolved. The formulation was prepared in dark room under monochromatic light. The final strength of the formulation was 500 μg/mL. The formulation was prepared fresh before administration. […]

[2] = Clinical observations in the single dose oral pharmacokinetics study; assay type: in vivo, Rat; details: oral 1000 μg per kg body weight, till 48 h post dose
[3] = Single dose oral pharmacokinetics study in male Sprague Dawley rats; assay type: in vivo, Rat; details: for Plasma Concentration of Menaquinone-7, Mean (comparative table): G1: Menaquinone-7 oral
[4] = system: caspase-3; details: at a concentration of 10 mcmol/L; cited from earlier work
[5] = Menaquinone-7 oral 1000 μg/kg b.w., sunflower oil
[6] = Menaquinone-7 oral 1000 μg/kg b.w., sunflower oil, N 6
[7] = Menaquinone-7 oral 1000 μg/kg b.w., sunflower oil, time 0.00 h
[8] = Menaquinone-7 oral 1000 μg/kg b.w., sunflower oil, time 0.50 h
[9] = Menaquinone-7 oral 1000 μg/kg b.w., sunflower oil, time 1.00 h
[10] = Menaquinone-7 oral 1000 μg/kg b.w., sunflower oil, time 2.00 h
[11] = Menaquinone-7 oral 1000 μg/kg b.w., sunflower oil, time 4.00 h
[12] = Menaquinone-7 oral 1000 μg/kg b.w., sunflower oil, time 6.00 h
[13] = Menaquinone-7 oral 1000 μg/kg b.w., sunflower oil, time 8.00 h
[14] = Menaquinone-7 oral 1000 μg/kg b.w., sunflower oil, time 24.00 h
[15] = Menaquinone-7 oral 1000 μg/kg b.w., sunflower oil, time 48.00 h

- Plasma Concentration of Menaquinone-7, Mean (comparative table) ([1]; Time 0.00 h): 0.00 ng/mL
- Plasma Concentration of Menaquinone-7, Mean (comparative table) ([1]; Time 0.50 h): 3 ng/mL
- Plasma Concentration of Menaquinone-7, Mean (comparative table) ([1]; Time 1.00 h): 11 ng/mL
- Plasma Concentration of Menaquinone-7, Mean (comparative table) ([1]; Time 2.00 h): 15 ng/mL
- Plasma Concentration of Menaquinone-7, Mean (comparative table) ([1]; Time 4.00 h): 14 ng/mL
- Plasma Concentration of Menaquinone-7, Mean (comparative table) ([1]; Time 6.00 h): 10 ng/mL
- Plasma Concentration of Menaquinone-7, Mean (comparative table) ([1]; Time 8.00 h): 6 ng/mL
- Plasma Concentration of Menaquinone-7, Mean (comparative table) ([1]; Time 48.00 h): 2 ng/mL
- Half life of Menaquinone-7 in plasma, Mean [1, 6]: 23.118 h and 23.12 ± 10.46 h
- MRTlast of Menaquinone-7 in plasma, Mean [1, 6]: 15.562 h and 15.56 ± 5.71 h
- Tmax of Menaquinone-7 in plasma, Mean [1, 6]: 5.000 h and 5.00 ± 2.10 h
- Plasma Concentration of Menaquinone-7, Mean [1, 7]: 0.00 ng/mL
- Plasma Concentration of Menaquinone-7, individual animals [1, 7]: 0.00 ng/mL
- Plasma Concentration of Menaquinone-7, Mean [1, 8]: 0.00 ng/mL
- Plasma Concentration of Menaquinone-7, individual animals [1, 8]: 0.00 ng/mL
- Plasma Concentration of Menaquinone-7, Mean [1, 9]: 3.23 ng/mL
- Plasma Concentration of Menaquinone-7, Mean [1, 10]: 11.83 ng/mL
- Plasma Concentration of Menaquinone-7, Mean [1, 11]: 15.64 ng/mL
- Plasma Concentration of Menaquinone-7, Mean [1, 12]: 14.62 ng/mL
- Plasma Concentration of Menaquinone-7, Mean [1, 13]: 10.35 ng/mL
- Plasma Concentration of Menaquinone-7, Mean [1, 14]: 5.70 ng/mL
- Plasma Concentration of Menaquinone-7, Mean [1, 15]: 2.36 ng/mL
- plasma exposure of Menaquinone-7 ([1]; after Menaquinone-7 administration, 1000 μg/kg body weight oral, in ng·h/mL): 279.43±74.91
- Plasma Concentration of Menaquinone-7, Mean (comparative table) ([3]; Time 0.25 h): 0.00 ng/mL
- Plasma Concentration of Menaquinone-7, Mean (comparative table) ([3]; Time 24.00 h): 5 ng/mL
- Tmax of Menaquinone-7 in plasma, individual animals [3, 5]: 6 h and 8 h and 4 h and 2 h
Molecule: CC(C)=CCC/C(C)=C/CC/C(C)=C/CC/C(C)=C/CC/C(C)=C/CC/C(C)=C/CC/C(C)=C/CC1=C(C)C(=O)c2ccccc2C1=O [Menaquinone-7]
- AUClast of Menaquinone-7 in plasma, individual animals [1, 5]: 352.16 ng·h/mL and 320.74 ng·h/mL and 166.19 ng·h/mL and 339.5 ng·h/mL and 211.72 ng·h/mL and 286.28 ng·h/mL
- Cmax of Menaquinone-7 in plasma, individual animals [1, 5]: 19.84 ng/mL and 13.25 ng/mL and 24.87 ng/mL and 23.02 ng/mL and 23.47 ng/mL and 14.4 ng/mL
- Half life of Menaquinone-7 in plasma, individual animals [1, 5]: 29.15 h and 30.91 h and 9.47 h and 21.96 h and 12.17 h and 35.05 h
- MRTlast of Menaquinone-7 in plasma, individual animals [1, 5]: 19.94 h and 20.91 h and 8.55 h and 14.68 h and 9.02 h and 20.28 h
- AUClast of Menaquinone-7 in plasma, Mean [1, 6]: 279.428 ng·h/mL and 279.43 ± 74.91 ng·h/mL
- Plasma Concentration of Menaquinone-7, individual animals [1, 9]: 0.00 ng/mL (2×) and 3.56 ng/mL and 5.64 ng/mL and 2.91 ng/mL and 7.26 ng/mL
- Plasma Concentration of Menaquinone-7, individual animals [1, 10]: 3.21 ng/mL and 3.69 ng/mL and 9.07 ng/mL and 22.74 ng/mL and 17.91 ng/mL and 14.40 ng/mL
- Plasma Concentration of Menaquinone-7, individual animals [1, 11]: 11.45 ng/mL and 7.00 ng/mL and 24.87 ng/mL and 154.39* ng/mL and 23.47 ng/mL and 11.40 ng/mL
- Plasma Concentration of Menaquinone-7, individual animals [1, 12]: 19.84 ng/mL and 5.53 ng/mL and 13.11 ng/mL and 23.02 ng/mL and 15.09 ng/mL and 11.15 ng/mL
- Plasma Concentration of Menaquinone-7, individual animals [1, 13]: 11.92 ng/mL and 13.25 ng/mL and 8.18 ng/mL and 8.40 ng/mL and 10.89 ng/mL and 9.43 ng/mL
- Plasma Concentration of Menaquinone-7, individual animals ([1]; Menaquinone-7 oral 1000 μg/kg b.w., sunflower oil, time 12.00 h): 7.05 ng/mL and 5.90 ng/mL and 4.26 ng/mL and 10.00 ng/mL and 5.48 ng/mL and 4.87 ng/mL
- Plasma Concentration of Menaquinone-7, individual animals [1, 14]: 8.16 ng/mL and 9.12 ng/mL and 3.00 ng/mL and 3.96 ng/mL and 4.84 ng/mL and 5.12 ng/mL
- Plasma Concentration of Menaquinone-7, individual animals [1, 15]: 3.81 ng/mL and 3.03 ng/mL and 0.00 ng/mL (2×) and 2.74 ng/mL and 4.56 ng/mL
- Clinical Observations [2]: Rats showed no adverse clinical signs of toxicity
- Cmax of Menaquinone-7 in plasma, Mean [3, 6]: 19 ng/mL and 19.808 ng/mL and 19.81 ± 4.93 ng/mL

Molecule: vitamin K2 [VK2]
- decrease of the activity of caspase-3 [4]: 2.5 fold
